Results published in patent US9784731B2, “Methods of monitoring and analyzing metabolic activity profiles diagnostic and therapeutic uses of same” (priority 2011, dated 2017).

Legend:
many cell types = conditions: intracellular pH measurements, overnight incubation at 2 mM; cited from earlier work
[1] = in aqueous (physiological) buffers; cited from earlier work
hPBMCs = assay: metabolic activity (MA) test, extracellular acidification of PBMCs; type: cell-based, human; conditions: hPBMCs of cancer patients, increasing PSA concentrations, FIGS. 8A-D
Procedure: Fresh peripheral blood mononuclear cells (PBMCs) were isolated by Ficoll-Paque (UNI-SEP, Novamed) and gradient centrifugation. The pellet was resuspended in working solution (WS) (PBS with calcium and magnesium) including the fluorescent probe (HPTS) at a final concentration of 5×10^6 cells/ml.
Each well in a black non-binding, low-volume 384 multi-well plate (Greiner Bio-One) was loaded with 10 μl of the PBMCs solution and 10 μl of working solution plus HPTS including one of ten reagents in 8 increasing concentrations. Thus the final concentration of the probe in each well was 1 μM, and the final concentration of the PBMCs was 2.5×10^6 cells/ml in 20 μl physiological working solution containing 10 mM phosphate buffer around pH 7.3. […] The acidification process was monitored each 5 min during 1 hour of incubation at 37° C. by a commercial fluorescence scanner (TECAN Infinite M200). First, the scanner monitored the acidification process without sealing (“OPEN” mode) during 30 min (6 cycles) and then, to avoid ventilation of CO2 and NH3 from each well, the multi-well plate was sealed hermetically (ThermalSeal RT™, EXCEL Scientific, Inc.) (“CLOSE” mode). Next, the acidification process was monitored again during 30 min (6 cycles). In order to increase the signal to noise ratio, the fluorescence intensities at 513 nm were measured sequentially under excitation at 455 nm and 403 nm per well. […]

Compound	toxicity (many cell types)	pKa [1]	MA-test profile under stimulation (hPBMCs)
O=S(=O)(O)c1cc(O)c2ccc3c(S(=O)(=O)O)cc(S(=O)(=O)O)c4ccc1c2c34 [HPTS, 8-Hydroxypyrene-1,3,6-trisulfonic acid]	low-toxicity	~7.3	
PSA: normal prostate tissue specific antigen peptide (146-154aa) recognized by cytotoxic T lymphocytes (PALGTTCYA; UniProt P07288 146-154, looked up, fragment)			marked peaks at optimal concentrations
